Assay results taken from article PMC5218480 (PLoS ONE, 2017).

System: MV-4-11 cells
Experiment: Gene expression microarray analysis (Affymetrix PrimeView) and GSEA
Assay type: cell-based, human
Set-up: RFU PODN (11730768_x_at) / Fold change /veh PODN (11730768_x_at) / RFU LINC00158 (11744669_a_at) / Fold change /veh LINC00158 (11744669_a_at) / RFU DUSP10 (11751237_a_at) / Fold change /veh DUSP10 (11751237_a_at) / RFU ID3 (11757404_x_at) / Fold change /veh ID3 (11757404_x_at) / RFU PLEKHG5 (11737974_s_at) / Fold change /veh PLEKHG5 (11737974_s_at) / RFU LRRC4B (11730491_at) / Fold change /veh LRRC4B (11730491_at) / RFU GIMAP4 (11747438_a_at) / Fold change /veh GIMAP4 (11747438_a_at) / RFU KRT8 (11758183_x_at) / Fold change /veh KRT8 (11758183_x_at) / RFU CNN1 (11734310_a_at) / Fold change /veh CNN1 (11734310_a_at) / RFU VPS37D (11726825_at) / Fold change /veh VPS37D (11726825_at) / RFU C10orf10 (11716522_x_at) / Fold change /veh C10orf10 (11716522_x_at) / RFU KIR2DL2 /// KIR2DL4 /// KIR2DL5A /// KIR2DL5B /// KIR2DS1 /// KIR2DS2 /// KIR2DS3 /// KIR2DS4 /// KIR3DL3 /// KIR3DL3 /// KIR3DS1 (11738374_at) / Fold change /veh KIR2DL2 /// KIR2DL4 /// KIR2DL5A /// KIR2DL5B /// KIR2DS1 /// KIR2DS2 /// KIR2DS3 /// KIR2DS4 /// KIR3DL3 /// KIR3DL3 /// KIR3DS1 (11738374_at) / RFU C1QL1 (11718748_at) / Fold change /veh C1QL1 (11718748_at) / RFU TMPRSS4 (11747572_a_at) / Fold change /veh TMPRSS4 (11747572_a_at) / RFU HAMP (11756126_x_at) / Fold change /veh HAMP (11756126_x_at) / RFU RNFT2 (11725882_a_at) / Fold change /veh RNFT2 (11725882_a_at) / RFU NR4A2 (11747474_a_at) / Fold change /veh NR4A2 (11747474_a_at) / RFU ABCC12 (11746883_a_at) / Fold change /veh ABCC12 (11746883_a_at) / RFU TMEM136 (11760407_x_at) / Fold change /veh TMEM136 (11760407_x_at) / RFU CLDN22 /// WWC2 (11732394_at) / Fold change /veh CLDN22 /// WWC2 (11732394_at) / RFU HLA-DPB1 (11760878_x_at) / Fold change /veh HLA-DPB1 (11760878_x_at) / RFU SPINT1 (11716480_a_at) / Fold change /veh SPINT1 (11716480_a_at) / RFU GAP43 (11754022_s_at) / Fold change /veh GAP43 (11754022_s_at) / RFU A4GNT (11735810_at) / Fold change /veh A4GNT (11735810_at) / RFU PRB3 (11715151_x_at) / Fold change /veh PRB3 (11715151_x_at) / RFU TUBB4B (11761932_at) / Fold change /veh TUBB4B (11761932_at) / RFU CAPN14 (11732068_a_at) / Fold change /veh CAPN14 (11732068_a_at) / RFU TMCC2 (11721928_a_at) / Fold change /veh TMCC2 (11721928_a_at) / RFU IRGQ (11745062_a_at) / Fold change /veh IRGQ (11745062_a_at) / RFU FAM174B (11720279_a_at) / Fold change /veh FAM174B (11720279_a_at) / RFU TMPRSS4 (11748680_a_at) / Fold change /veh TMPRSS4 (11748680_a_at) / RFU FAM212B (11763350_a_at) / Fold change /veh FAM212B (11763350_a_at) / RFU PLEKHG5 (11743358_a_at) / Fold change /veh PLEKHG5 (11743358_a_at) / RFU ZSCAN30 (11745921_a_at) / Fold change /veh ZSCAN30 (11745921_a_at) / RFU CMKLR1 (11741424_a_at) / Fold change /veh CMKLR1 (11741424_a_at) / RFU LOC101060620 /// MAPK8IP1 (11723275_at) / Fold change /veh LOC101060620 /// MAPK8IP1 (11723275_at) / RFU SPTSSB (11747773_x_at) / Fold change /veh SPTSSB (11747773_x_at) / RFU PRSS12 (11739890_at) / Fold change /veh PRSS12 (11739890_at) / RFU BIN1 (11741810_x_at) / Fold change /veh BIN1 (11741810_x_at) / RFU WNT11 (11732464_a_at) / Fold change /veh WNT11 (11732464_a_at) / RFU C10orf10 (11716521_a_at) / Fold change /veh C10orf10 (11716521_a_at) / RFU C5orf56 (11738089_at) / Fold change /veh C5orf56 (11738089_at) / RFU CYB561 (11721691_x_at) / Fold change /veh CYB561 (11721691_x_at) / RFU ANKRD19P (11752326_a_at) / Fold change /veh ANKRD19P (11752326_a_at) / RFU OR2T12 /// OR2T33 /// OR2T8 (11738714_s_at) / Fold change /veh OR2T12 /// OR2T33 /// OR2T8 (11738714_s_at) / RFU VCAN (11748164_a_at) / Fold change /veh VCAN (11748164_a_at) / RFU JSRP1 (11732532_at) / Fold change /veh JSRP1 (11732532_at) / RFU KRTAP10-11 (11738290_x_at) / Fold change /veh KRTAP10-11 (11738290_x_at) / RFU MYO3A (11730013_a_at) / Fold change /veh MYO3A (11730013_a_at) / RFU EBF3 (11725865_a_at) / Fold change /veh EBF3 (11725865_a_at) / RFU CAMK2N1 (11719241_x_at) / Fold change /veh CAMK2N1 (11719241_x_at) / RFU C5orf56 (11738088_a_at) / Fold change /veh C5orf56 (11738088_a_at) / RFU OLFML3 (11715873_a_at) / Fold change /veh OLFML3 (11715873_a_at) / RFU LOC100653217 /// NTM (11731650_a_at) / Fold change /veh LOC100653217 /// NTM (11731650_a_at) / RFU MAPK11 (11762145_a_at) / Fold change /veh MAPK11 (11762145_a_at) / RFU FIZ1 (11724087_x_at) / Fold change /veh FIZ1 (11724087_x_at) / RFU OASL (11726364_x_at) / Fold change /veh OASL (11726364_x_at) / RFU SOX15 (11748057_x_at) / Fold change /veh SOX15 (11748057_x_at) / RFU CD79A (11719716_a_at) / Fold change /veh CD79A (11719716_a_at) / RFU HIST1H1D (11736915_at) / Fold change /veh HIST1H1D (11736915_at) / RFU CASKIN2 (11723855_a_at) / Fold change /veh CASKIN2 (11723855_a_at) / RFU LOC730098 (11760151_x_at) / Fold change /veh LOC730098 (11760151_x_at) / RFU OR4N2 (11742367_at) / Fold change /veh OR4N2 (11742367_at) / RFU PRRT2 (11749266_a_at) / Fold change /veh PRRT2 (11749266_a_at) / RFU SNX32 (11753110_a_at) / Fold change /veh SNX32 (11753110_a_at) / RFU CDHR5 (11726645_a_at) / Fold change /veh CDHR5 (11726645_a_at) / RFU RCAN1 (11760418_a_at) / Fold change /veh RCAN1 (11760418_a_at) / RFU FAM167A (11723789_a_at) / Fold change /veh FAM167A (11723789_a_at) / RFU FAM26E (11764081_at) / Fold change /veh FAM26E (11764081_at) / RFU ISYNA1 (11749810_s_at) / Fold change /veh ISYNA1 (11749810_s_at) / RFU ACY1 (11761880_at) / Fold change /veh ACY1 (11761880_at) / RFU 11764098_at / Fold change /veh 11764098_at / RFU SAMD14 (11745864_x_at) / Fold change /veh SAMD14 (11745864_x_at) / RFU NPB (11741838_a_at) / Fold change /veh NPB (11741838_a_at) / RFU TMPRSS6 (11731388_a_at) / Fold change /veh TMPRSS6 (11731388_a_at) / RFU KRTAP10-2 (11738614_at) / Fold change /veh KRTAP10-2 (11738614_at) / RFU ARHGAP8 /// PRR5-ARHGAP8 (11727945_x_at) / Fold change /veh ARHGAP8 /// PRR5-ARHGAP8 (11727945_x_at) / RFU KRTAP5-7 /// NADSYN1 (11734609_at) / Fold change /veh KRTAP5-7 /// NADSYN1 (11734609_at) / RFU RASL12 (11751679_a_at) / Fold change /veh RASL12 (11751679_a_at) / RFU CDKN2B (11736163_a_at) / Fold change /veh CDKN2B (11736163_a_at) / RFU PRF1 (11729649_at) / Fold change /veh PRF1 (11729649_at) / RFU, ZNF638 /// ZNF638-IT1 / Fold change vs veh, ZNF638 /// ZNF638-IT1 / RFU, PANK3 / Fold change vs veh, PANK3 / RFU, SH3YL1 / Fold change vs veh, SH3YL1 / RFU, ZEB2 / Fold change vs veh, ZEB2 / RFU, NRIP1 / Fold change vs veh, NRIP1 / RFU, PTTG1IP / Fold change vs veh, PTTG1IP / RFU, CAPN2 / Fold change vs veh, CAPN2 / RFU, MED14 / Fold change vs veh, MED14 / RFU, SNORA58 / Fold change vs veh, SNORA58 / RFU, C1orf63 / Fold change vs veh, C1orf63 / RFU, LRRFIP1 / Fold change vs veh, LRRFIP1 / RFU, NDUFAF7 / Fold change vs veh, NDUFAF7 / RFU, SLC12A2 / Fold change vs veh, SLC12A2 / RFU, IBTK / Fold change vs veh, IBTK / RFU, ESF1 / Fold change vs veh, ESF1 / Fold change vs veh, TMEM50B / RFU, TAOK1 / Fold change vs veh, TAOK1 / RFU, ACBD3 / Fold change vs veh, ACBD3 / RFU, TMA16 / Fold change vs veh, TMA16 / RFU, RWDD3 / Fold change vs veh, RWDD3 / RFU, BCAT1 / Fold change vs veh, BCAT1 / RFU, EDEM3 / Fold change vs veh, EDEM3 / RFU, TMEM33 / Fold change vs veh, TMEM33 / RFU, WDR75 / Fold change vs veh, WDR75 / RFU, AHCTF1 / Fold change vs veh, AHCTF1 / RFU, TFRC / Fold change vs veh, TFRC / RFU, ZDHHC17 / Fold change vs veh, ZDHHC17 / RFU, NOM1 / Fold change vs veh, NOM1 / RFU, ARL8B / Fold change vs veh, ARL8B / RFU, ZBTB11 / Fold change vs veh, ZBTB11 / RFU, TAMM41 / Fold change vs veh, TAMM41 / RFU, KIAA1704 /// LOC100996395 / Fold change vs veh, KIAA1704 /// LOC100996395 / RFU, ING1 / Fold change vs veh, ING1 / RFU, TRMT61B / Fold change vs veh, TRMT61B / RFU, FUBP3 / Fold change vs veh, FUBP3 / RFU, TP53 / Fold change vs veh, TP53 / RFU, TNKS2 / Fold change vs veh, TNKS2 / RFU, ZFP14 / Fold change vs veh, ZFP14 / RFU, ACTR2 / Fold change vs veh, ACTR2 / RFU, PPP3R1 / Fold change vs veh, PPP3R1 / RFU, PIK3R1 / Fold change vs veh, PIK3R1 / RFU, HNRNPA1 / Fold change vs veh, HNRNPA1 / RFU, RNF170 / Fold change vs veh, RNF170 / RFU, ZNF28 / Fold change vs veh, ZNF28 / RFU, RNGTT / Fold change vs veh, RNGTT / RFU, OGT / Fold change vs veh, OGT / RFU, BRD1 / Fold change vs veh, BRD1 / RFU, MARS / Fold change vs veh, MARS / RFU, ZNF655 / Fold change vs veh, ZNF655 / RFU, FAHD1 / Fold change vs veh, FAHD1 / RFU, BDP1 / Fold change vs veh, BDP1 / RFU, LRRCC1 / Fold change vs veh, LRRCC1 / RFU, ARID1A / Fold change vs veh, ARID1A / RFU, ZNF146 / Fold change vs veh, ZNF146 / RFU, ZNF330 / Fold change vs veh, ZNF330 / RFU, GPN3 / Fold change vs veh, GPN3 / RFU, C9orf123 / Fold change vs veh, C9orf123 / RFU, N4BP2L2 / Fold change vs veh, N4BP2L2 / RFU, ARFIP1 / Fold change vs veh, ARFIP1 / RFU, FAM179B / Fold change vs veh, FAM179B / RFU, BCL10 / Fold change vs veh, BCL10 / RFU, UHRF1BP1L / Fold change vs veh, UHRF1BP1L / RFU, BET1 / Fold change vs veh, BET1 / RFU, CNOT2 / Fold change vs veh, CNOT2 / RFU, ZNF268 / Fold change vs veh, ZNF268 / Fold change vs veh, ZNF507 / RFU, DGCR2 / Fold change vs veh, DGCR2 / RFU, WDSUB1 / Fold change vs veh, WDSUB1 / Fold change vs veh, HSP90B1 /// MIR3652 / RFU, ADSS / Fold change vs veh, ADSS / RFU, GK / Fold change vs veh, GK / RFU, ZNF148 / Fold change vs veh, ZNF148 / RFU, TAF9 / Fold change vs veh, TAF9 / RFU, SLC1A5 / Fold change vs veh, SLC1A5 / RFU, SLMO2 / Fold change vs veh, SLMO2 / RFU, ABCC4 / Fold change vs veh, ABCC4 / RFU, LOC101060439 /// RAP1B / Fold change vs veh, LOC101060439 /// RAP1B / RFU, RFX7 / Fold change vs veh, RFX7 / RFU, GTPBP10 / Fold change vs veh, GTPBP10 / RFU, CNEP1R1 / Fold change vs veh, CNEP1R1 / RFU, BIVM-ERCC5 /// ERCC5 / Fold change vs veh, BIVM-ERCC5 /// ERCC5 / RFU, ILF3 / Fold change vs veh, ILF3 / RFU 11762660_at / Fold change /veh 11762660_at / RFU VCAN (11757783_s_at) / Fold change /veh VCAN (11757783_s_at) / RFU DDX43 (11728927_at) / Fold change /veh DDX43 (11728927_at) / RFU KRT8 (11758188_x_at) / Fold change /veh KRT8 (11758188_x_at) / RFU NKD1 (11759106_at) / Fold change /veh NKD1 (11759106_at) / RFU SRD5A1 (11742802_a_at) / Fold change /veh SRD5A1 (11742802_a_at) / RFU TPSAB1 /// TPSB2 (11721975_s_at) / Fold change /veh TPSAB1 /// TPSB2 (11721975_s_at) / RFU GSTM3 (11746129_a_at) / Fold change /veh GSTM3 (11746129_a_at) / RFU IL23R (11737362_x_at) / Fold change /veh IL23R (11737362_x_at) / RFU TMEM51 (11727254_a_at) / Fold change /veh TMEM51 (11727254_a_at) / RFU PIWIL2 (11732686_x_at) / Fold change /veh PIWIL2 (11732686_x_at) / RFU ORM1 (11744905_x_at) / Fold change /veh ORM1 (11744905_x_at) / RFU CCDC152 (11743942_at) / Fold change /veh CCDC152 (11743942_at) / RFU ECM1 (11717891_a_at) / Fold change /veh ECM1 (11717891_a_at) / RFU IL23R (11748794_a_at) / Fold change /veh IL23R (11748794_a_at) / RFU TNFAIP8L3 (11732012_x_at) / Fold change /veh TNFAIP8L3 (11732012_x_at) / RFU MBOAT4 (11741988_at) / Fold change /veh MBOAT4 (11741988_at) / RFU 11764193_at / Fold change /veh 11764193_at / RFU TMEM53 (11763286_at) / Fold change /veh TMEM53 (11763286_at) / RFU MAGEB2 (11727129_at) / Fold change /veh MAGEB2 (11727129_at) / RFU TMEM200A (11744735_a_at) / Fold change /veh TMEM200A (11744735_a_at) / RFU CCDC152 (11751479_a_at) / Fold change /veh CCDC152 (11751479_a_at) / RFU FAM211A (11726209_a_at) / Fold change /veh FAM211A (11726209_a_at) / RFU RGS16 (11746705_a_at) / Fold change /veh RGS16 (11746705_a_at) / RFU VCAN (11755009_s_at) / Fold change /veh VCAN (11755009_s_at) / RFU RHOB (11743442_s_at) / Fold change /veh RHOB (11743442_s_at) / RFU RGS16 (11720943_a_at) / Fold change /veh RGS16 (11720943_a_at) / RFU RGS16 (11720944_at) / Fold change /veh RGS16 (11720944_at) / RFU, VPS4B / Fold change vs veh, VPS4B / RFU, CREB1 / Fold change vs veh, CREB1 / RFU, DNAJC13 / Fold change vs veh, DNAJC13 / RFU, GNAQ / Fold change vs veh, GNAQ / RFU, CDK5R1 / Fold change vs veh, CDK5R1 / RFU, ZRANB3 / Fold change vs veh, ZRANB3 / RFU, CUL4A / Fold change vs veh, CUL4A / RFU, CCNY / Fold change vs veh, CCNY / RFU, UFL1 / Fold change vs veh, UFL1 / RFU, COG3 / Fold change vs veh, COG3 / RFU, DIAPH2 / Fold change vs veh, DIAPH2 / RFU, SKA2 / Fold change vs veh, SKA2 / RFU, AFF3 / Fold change vs veh, AFF3 / RFU, LMF1 / Fold change vs veh, LMF1 / RFU, IPO11 / Fold change vs veh, IPO11 / RFU, DFFB / Fold change vs veh, DFFB / RFU, FOXP1 / Fold change vs veh, FOXP1 / RFU, CARD8 / Fold change vs veh, CARD8 / RFU, STRN3 / Fold change vs veh, STRN3 / RFU, ADK / Fold change vs veh, ADK / RFU, RASSF2 / Fold change vs veh, RASSF2 / RFU, WIPF1 / Fold change vs veh, WIPF1 / RFU, LARP1B / Fold change vs veh, LARP1B / RFU, RASA1 / Fold change vs veh, RASA1 / RFU, RB1 / Fold change vs veh, RB1 / RFU, PPFIA1 / Fold change vs veh, PPFIA1 / RFU, MAT2A / Fold change vs veh, MAT2A / RFU, CCT5 / Fold change vs veh, CCT5 / RFU, WDR92 / Fold change vs veh, WDR92 / RFU, CUX1 / Fold change vs veh, CUX1 / RFU, TTC7A / Fold change vs veh, TTC7A / RFU, TMEM135 / Fold change vs veh, TMEM135 / RFU, DEPTOR / Fold change vs veh, DEPTOR / RFU, CPM / Fold change vs veh, CPM / RFU, DNAJB6 / Fold change vs veh, DNAJB6 / RFU, CACNA2D3 / Fold change vs veh, CACNA2D3 / RFU, DTX4 / Fold change vs veh, DTX4 / RFU, TFCP2 / Fold change vs veh, TFCP2 / RFU, GMCL1 /// GMCL1P1 / Fold change vs veh, GMCL1 /// GMCL1P1 / RFU, AEBP2 / Fold change vs veh, AEBP2 / RFU, SNHG1 /// SNORD22 /// SNORD25 /// SNORD26 /// SNORD27 /// SNORD28 /// SNORD29 /// SNORD31 / Fold change vs veh, SNHG1 /// SNORD22 /// SNORD25 /// SNORD26 /// SNORD27 /// SNORD28 /// SNORD29 /// SNORD31 / Fold change (Aza/veh), C12orf56 (ProbeSet 11735607_a_at) / Fold change (ACY-1035/veh), C12orf56 (ProbeSet 11735607_a_at) / Fold change (Aza/veh), FGFR1OP (ProbeSet 11751329_s_at) / Fold change (ACY-1035/veh), FGFR1OP (ProbeSet 11751329_s_at) / Fold change (Aza/veh), VPS36 (ProbeSet 11739960_a_at) / Fold change (ACY-1035/veh), VPS36 (ProbeSet 11739960_a_at) / RFU SYPL1 (11715823_x_at) / Fold change /veh SYPL1 (11715823_x_at) / RFU IGFBP7 (11715501_s_at) / Fold change /veh IGFBP7 (11715501_s_at) / RFU REEP3 (11722064_at) / Fold change /veh REEP3 (11722064_at) / RFU IGLL1 (11728026_x_at) / Fold change /veh IGLL1 (11728026_x_at): dose or concentration left out as unconfirmed
Settings: MV-4-11 cells, 48 hours

SMILES: Nc1ccc(-c2cccs2)cc1NC(=O)c1ccc2c(c1)cc(C1CC1)n2CCN1CCOCC1 [ACY-1035]
- Fold change /veh CDKN2B (11736163_a_at): 1.20
